A word on the IC50: it is the concentration needed to halve the response being measured.

The test addresses Non-receptor tyrosine-protein kinase TYK2 (Homo sapiens, UniProt P29597). Kind of test: Inhibition of 10-His tagged recombinant TYK2 JH2 domain (575 to 876 residues) (unknown origin) incubated for 60 mins by TR-FRET assay.

Non-receptor tyrosine-protein kinase TYK2, sequence (P29597 whole entry, the tested form may be a part): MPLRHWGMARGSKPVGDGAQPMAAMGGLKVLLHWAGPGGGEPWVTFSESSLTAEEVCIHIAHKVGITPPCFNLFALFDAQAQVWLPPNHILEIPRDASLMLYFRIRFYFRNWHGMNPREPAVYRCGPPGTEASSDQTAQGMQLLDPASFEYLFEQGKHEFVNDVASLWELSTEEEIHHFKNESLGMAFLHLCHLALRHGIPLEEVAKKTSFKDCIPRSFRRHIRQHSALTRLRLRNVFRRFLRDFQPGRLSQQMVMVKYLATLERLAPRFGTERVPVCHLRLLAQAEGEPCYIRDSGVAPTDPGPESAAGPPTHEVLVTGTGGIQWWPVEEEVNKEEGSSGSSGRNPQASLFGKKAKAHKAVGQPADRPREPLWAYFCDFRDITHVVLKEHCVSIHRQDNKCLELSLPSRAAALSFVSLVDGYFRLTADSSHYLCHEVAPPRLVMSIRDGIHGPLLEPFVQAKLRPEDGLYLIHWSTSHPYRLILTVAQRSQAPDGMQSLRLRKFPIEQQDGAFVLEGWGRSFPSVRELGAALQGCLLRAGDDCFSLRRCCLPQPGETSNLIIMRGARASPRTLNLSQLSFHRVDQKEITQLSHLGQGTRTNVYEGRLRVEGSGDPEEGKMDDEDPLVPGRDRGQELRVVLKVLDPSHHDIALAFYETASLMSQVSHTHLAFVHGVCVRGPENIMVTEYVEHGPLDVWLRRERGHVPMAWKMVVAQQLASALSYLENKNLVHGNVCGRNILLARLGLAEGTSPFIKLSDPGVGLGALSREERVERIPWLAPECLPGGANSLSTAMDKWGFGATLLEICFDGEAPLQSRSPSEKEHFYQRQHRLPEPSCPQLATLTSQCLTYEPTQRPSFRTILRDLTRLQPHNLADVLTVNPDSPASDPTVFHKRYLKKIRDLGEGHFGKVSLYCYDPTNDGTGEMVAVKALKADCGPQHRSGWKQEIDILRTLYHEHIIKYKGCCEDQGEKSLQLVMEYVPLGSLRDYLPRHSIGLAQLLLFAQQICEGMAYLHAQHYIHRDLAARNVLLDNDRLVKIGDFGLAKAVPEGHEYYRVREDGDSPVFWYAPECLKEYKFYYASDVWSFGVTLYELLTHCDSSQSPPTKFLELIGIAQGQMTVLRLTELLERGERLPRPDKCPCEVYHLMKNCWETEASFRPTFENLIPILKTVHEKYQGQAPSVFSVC

In the case of `CC(=O)Nc1cc2c(cn1)C1(CC1)CN2c1cc(C)nc(C2CCC2)n1`, the IC50 is no more than 10 nM.
With `CC(=O)Nc1cc2c(cn1)C1(CC1)CN2c1cc(NC2CCSC2)nc(C(C)(F)F)n1` (stereo unspecified) the figure was no more than 10 nM.
As for `CSc1nc(C)cc(N2CC3(CC3)c3cnc(NC(C)=O)cc32)n1`, the IC50 is no more than 10 nM.
With `CC(=O)Nc1cc2c(cn1)C1(CC1)CN2c1nc(C2CCOC2)c(C)s1` (stereo unspecified) the figure was no more than 10 nM; with `CC(=O)Nc1cc2c(cn1)C1(CC1)CN2c1cc(-c2ncn(C)n2)nc(C(C)(F)F)n1`, no more than 10 nM.
In the case of `CC(=O)Nc1cc2c(cn1)C1(CC1)CN2c1cccc(S(C)(=O)=O)n1`, the IC50 is no more than 10 nM.

Values taken from ChEMBL document CHEMBL5532728, “Novel Tyrosine Kinase 2 Inhibitors for Treating Autoimmune and Inflammatory Diseases” (ACS Med Chem Lett, 2024).
